# Test results: US9115092B2, “Substituted quinazoline and pyrido-pyrimidine derivatives” (Asana Biosciences, LLC, priority 2010, dated 2015)
# Experiments:
# [1] = test system: pAKT(5473) (phosphorylated at serine 473), PC3 cells; experiment: In-cell Western assay, pAKT(5473) in PC3 cells; type: cell-based; conditions: Homo sapiens, PC-3, In-cell Western, read-out: pAkt-S473
# Procedure: Cells from human prostate cancer cell line PC3 (American Type Culture Collection (ATCC), Manassas, Va. 20108 USA) were seeded at an optimal density of 22,000 cell/well in 96-well plates containing Ham's F12K medium (90 μL) and incubated overnight. The compound dilutions were carried out in 100% DMSO followed by a dilution in the medium. Test compounds were added in serial dilutions to the wells and incubated for 2 h. The cells were washed and fixed with 4% paraformaldehyde. After incubation at room temperature for 1 h in the dark, blocking was done for 2 h at room temperature. Primary antibodies for phosphorylated (p) AKT(5473) (phosphorylated at serine 473), pAKT(T308) (phosphorylated at threonine 308) and for pS6RP(S235/236) (phosphorylated at serine 235/236) (commercially available from Cell Signaling Technology®, whose protocol was followed for the in-cell western assay, were diluted to the required concentration and added to the corresponding wells followed by overnight incubation at 4° C. Eu-labeled rabbit (PE) (Perkin-Elmer USA catalog #AD0106) secondary antibody was added and incubated for 2 h at room temperature. Delfia® enhancement solution (cat #1244-105, Perkin Elmer USA) was subsequently added to the plate before taking the reading at 615 nm with excitation wavelength of 340 nm, after which 0.5 μg/mL of Hoechst® 33258 dye (Catalog #86140-5, Sigma) was added to the plate and fluorescence emission was read at 460 nm with 355 nm excitation, to evaluate the correction factor. IC50 values were calculated using a sigmoidal dose-response curve fit in GraphPad Prism® v5 software.
# mTOR kinase = target: T1, mTOR kinase (Homo sapiens, UniProt P42345); experiment: mTOR kinase TR-FRET assay; type: biochemical; conditions: read-out: mTO R
# T1 construct: purchased Millipore, USA
# Summary of the method: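 Compounds preincubated 60 min with mTOR (5 ng) in HEPES pH 7.5, EGTA, MnCl2; ULight-p70 S6K Thr389 peptide (50 nM) and ATP (20 μM) then added, 60 min at room temperature. EDTA-stopped, Eu-anti-phospho antibody detection by TR-FRET (665/615 nm); IC50 from variable-slope sigmoidal fit.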
# PI3 kinase isoform β = PI3 kinase isoform β (Homo sapiens, UniProt P42338); experiment: PI3 Kinase TR-FRET assay, isoform β; type: biochemical; conditions: read-out: inhibition of PI3 kinase isoform β, IC50
# Chain of PI3 kinase isoform β (P42338 whole entry, the tested form may be a part, canonical isoform): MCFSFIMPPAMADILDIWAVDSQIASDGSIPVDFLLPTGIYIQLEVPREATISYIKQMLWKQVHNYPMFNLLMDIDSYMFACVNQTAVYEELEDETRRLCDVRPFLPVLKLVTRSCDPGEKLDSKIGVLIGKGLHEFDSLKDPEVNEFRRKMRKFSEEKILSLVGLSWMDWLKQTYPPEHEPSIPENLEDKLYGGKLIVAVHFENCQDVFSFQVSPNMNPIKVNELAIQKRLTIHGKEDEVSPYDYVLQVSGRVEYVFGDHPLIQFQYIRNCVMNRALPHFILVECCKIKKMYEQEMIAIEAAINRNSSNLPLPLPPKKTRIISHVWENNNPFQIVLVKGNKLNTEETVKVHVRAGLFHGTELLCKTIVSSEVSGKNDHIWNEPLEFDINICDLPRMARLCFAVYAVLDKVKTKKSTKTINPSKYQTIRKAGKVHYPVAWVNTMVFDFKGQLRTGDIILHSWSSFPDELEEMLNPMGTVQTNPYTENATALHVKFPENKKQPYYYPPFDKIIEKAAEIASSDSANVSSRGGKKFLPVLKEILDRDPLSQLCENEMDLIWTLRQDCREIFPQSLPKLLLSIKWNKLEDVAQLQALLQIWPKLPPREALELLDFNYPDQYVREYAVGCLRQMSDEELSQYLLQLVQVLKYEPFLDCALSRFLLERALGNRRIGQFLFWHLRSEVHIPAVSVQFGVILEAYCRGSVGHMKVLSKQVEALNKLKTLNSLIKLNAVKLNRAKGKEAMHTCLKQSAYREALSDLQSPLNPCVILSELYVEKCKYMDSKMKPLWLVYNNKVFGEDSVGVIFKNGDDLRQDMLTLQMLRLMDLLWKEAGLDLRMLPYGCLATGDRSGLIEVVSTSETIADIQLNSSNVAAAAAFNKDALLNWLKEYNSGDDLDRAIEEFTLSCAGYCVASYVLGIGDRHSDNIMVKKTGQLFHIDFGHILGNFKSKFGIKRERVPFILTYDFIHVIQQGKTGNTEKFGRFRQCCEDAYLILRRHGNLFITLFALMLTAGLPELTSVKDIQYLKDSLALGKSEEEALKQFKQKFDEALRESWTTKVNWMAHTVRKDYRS
# Chain of PI3 kinase isoform β (P27986 whole entry partner, the tested form may be a part, canonical isoform): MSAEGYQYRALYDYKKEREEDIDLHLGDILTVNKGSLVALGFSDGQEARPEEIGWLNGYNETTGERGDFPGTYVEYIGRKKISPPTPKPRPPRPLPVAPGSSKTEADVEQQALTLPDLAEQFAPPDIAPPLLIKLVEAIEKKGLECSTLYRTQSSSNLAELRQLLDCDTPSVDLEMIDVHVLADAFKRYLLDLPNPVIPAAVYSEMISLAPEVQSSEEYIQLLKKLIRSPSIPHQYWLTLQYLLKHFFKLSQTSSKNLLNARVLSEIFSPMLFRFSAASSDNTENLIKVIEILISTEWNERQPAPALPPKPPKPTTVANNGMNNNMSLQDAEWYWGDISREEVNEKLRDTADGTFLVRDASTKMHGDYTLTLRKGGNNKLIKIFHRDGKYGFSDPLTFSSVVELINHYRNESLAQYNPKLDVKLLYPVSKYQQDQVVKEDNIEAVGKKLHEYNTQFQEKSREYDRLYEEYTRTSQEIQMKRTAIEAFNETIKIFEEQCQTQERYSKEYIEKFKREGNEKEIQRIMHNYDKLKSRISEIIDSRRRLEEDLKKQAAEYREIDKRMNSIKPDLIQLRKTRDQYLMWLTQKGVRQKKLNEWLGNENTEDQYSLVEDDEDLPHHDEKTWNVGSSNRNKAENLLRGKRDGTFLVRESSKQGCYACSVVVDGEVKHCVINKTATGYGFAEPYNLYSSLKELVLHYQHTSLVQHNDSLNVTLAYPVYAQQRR
# Procedure: The ability of compounds of the invention to inhibit PI3K activity was determined in a homogeneous TR-FRET assay using a PI3K assay kit (Millipore, USA; cat #33-016) according to manufacturer's instructions. PI3-Kinases (isoforms α, β, γ and δ) catalyze the phosphorylation of phosphatidylinositol, PIP2 to PIP3 in the presence of ATP and Mg^2+. The PIP3 product is detected by displacement of biotin-PIP3 from an energy transfer complex consisting of Europium labeled anti-GST monoclonal antibody, a GST-tagged PH domain, biotinylated PIP3 and Streptavidin-APC. Excitation of Europium in the complex results in an energy transfer to the APC and a fluorescence emission at 665 nm. The PIP3 product displaces biotin-PIP3 from the complex resulting in a loss of energy transfer and thus a decrease in signal.
# To test for the ability of compounds to inhibit the activity of PI3Kα (wild-type), exemplary compounds of formula (I) were dissolved in DMSO and directly distributed into 384-well plates at a volume of 0.5 μL. 14.5 μL of P110/P85α/PIP2 mixture in buffer (obtained from the Millipore kit) containing MgCl2 (40 mM) and DTT (5 mM) was added to compound wells and incubated for 60 min at room temperature. P110/P85α was expressed in SF9 insect cells and purified nickel column extraction. Five ng of wild-type P110/P85α was used in the assay. The kinase reaction was started by the addition of ATP. The assay concentrations of both PIP2 and ATP were 10 μM. The reaction mixture was incubated for 30 min at room temperature and was terminated by the addition of stop mix and detection mix. Fluorescence was measured at 615 and 665 nm upon excitation at 340 nm in a Victor™ V5 fluorometer (Perkin Elmer, USA). The fluorescence emission ratio at 665 to 615 nm, proportional to the kinase activity, was plotted against the compound concentration to generate dose-response curves and IC50 values were determined using GraphPad Prism® 5 software.
# The activity of PI3 kinase isoforms β, γ and δ were assayed in a similar manner to the assay protocol described above for PI3Kα, by substituting the appropriate p110/p85 isoform for the p110α/p85α. Compounds of formula (I) caused inhibition of PI3 kinase isoforms β, γ and δ as determined by these assays. For example, the compounds of examples 3, 51, 54, 111, 113, 115, and 253 each caused inhibition of PI3 kinase isoform β with IC50 values <50 nM. The compounds of examples 104, 133, 146 and 152 each caused inhibition of PI3 kinase isoform β with IC50 values <500 nM. The compounds of examples 3, 51, 54, 104, 111, 113, 115, 133, 253, and 152 each caused inhibition of PI3 kinase isoform γ with IC50 values <500 nM. […] The compounds of examples 2, 3, 51, 54, 111, 113, and 253 each caused inhibition of PI3 kinase isoform […] with IC50 values >1 μM.
# [2] = target: T2, PI3Kα (wild-type), P110/P85α (Homo sapiens, UniProt P42336); experiment: PI3 Kinase TR-FRET assay, PI3Kα (wild-type); type: biochemical
# T2 construct: made in house; host or cells: SF9 insect cells
# T2 sequence (P42336 whole entry): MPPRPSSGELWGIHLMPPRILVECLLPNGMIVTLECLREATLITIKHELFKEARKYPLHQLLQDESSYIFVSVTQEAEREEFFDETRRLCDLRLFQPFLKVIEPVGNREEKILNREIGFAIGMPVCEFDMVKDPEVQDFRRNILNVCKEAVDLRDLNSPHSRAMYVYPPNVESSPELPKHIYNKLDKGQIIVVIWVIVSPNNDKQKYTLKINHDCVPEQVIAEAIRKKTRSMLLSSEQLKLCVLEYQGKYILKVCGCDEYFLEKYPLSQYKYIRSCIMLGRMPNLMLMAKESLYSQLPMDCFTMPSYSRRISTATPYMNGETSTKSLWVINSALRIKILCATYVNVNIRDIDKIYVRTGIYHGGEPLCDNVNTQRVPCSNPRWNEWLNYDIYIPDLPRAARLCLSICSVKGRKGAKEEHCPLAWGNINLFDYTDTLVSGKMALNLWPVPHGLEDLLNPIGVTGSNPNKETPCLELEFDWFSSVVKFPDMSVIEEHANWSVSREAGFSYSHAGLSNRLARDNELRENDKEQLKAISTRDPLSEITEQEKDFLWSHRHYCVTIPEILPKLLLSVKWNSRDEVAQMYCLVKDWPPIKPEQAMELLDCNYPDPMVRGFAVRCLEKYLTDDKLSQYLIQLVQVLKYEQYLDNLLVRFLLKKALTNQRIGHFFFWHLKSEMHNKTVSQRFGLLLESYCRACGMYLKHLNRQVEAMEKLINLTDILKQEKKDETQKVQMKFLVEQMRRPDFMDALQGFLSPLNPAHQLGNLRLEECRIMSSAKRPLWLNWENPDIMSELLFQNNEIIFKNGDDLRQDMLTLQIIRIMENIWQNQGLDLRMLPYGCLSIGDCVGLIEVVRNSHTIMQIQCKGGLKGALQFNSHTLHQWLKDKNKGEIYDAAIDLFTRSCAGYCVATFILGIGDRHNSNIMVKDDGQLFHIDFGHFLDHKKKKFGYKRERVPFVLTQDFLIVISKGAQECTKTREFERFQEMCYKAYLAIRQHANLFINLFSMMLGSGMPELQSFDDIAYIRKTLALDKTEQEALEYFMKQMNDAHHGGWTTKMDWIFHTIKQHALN
# T2 sequence (P27986 whole entry partner): as the sequence (P27986 whole entry partner, the tested form may be a part, canonical isoform) above
# Summary of the method: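 Sf9-expressed His-purified P110/P85α (5 ng) preincubated 60 min RT with compound and PIP2 in buffer with 40 mM MgCl2, 5 mM DTT; reaction started with ATP (PIP2 and ATP both 10 μM), 30 min RT. PIP3 detected by TR-FRET displacement, 665/615 nm ratio; IC50 from dose-response curves.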
# [3] = test system: pS6RP(S235/236), PC3 cells; experiment: In-cell Western assay, pS6RP(S235/236) in PC3 cells; type: cell-based, human; conditions: Homo sapiens, PC-3, In-cell Western
# Summary of the method: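 Overnight-seeded PC3 cells were treated 2 h with serially diluted compound, then fixed and immunostained with phospho-specific primary antibodies and Eu-labelled secondary. Time-resolved Eu signal read at 615 nm (ex 340 nm), normalised by Hoechst 33258 staining (ex 355/em 460 nm); IC50 from sigmoidal dose-response fit.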
# PC3 cells [4] = experiment: XTT assay for cell viability, PC3 cells; type: cell-based, human; conditions: Homo sapiens, PC-3, cell viability
# Summary of the method: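 PC3 cells seeded at 1000 cells/well, grown 24 h, then exposed to serial dilutions of compound for 96 h. Viability read by XTT dye at 37° C, absorbance 465 nm. EC50 from sigmoidal dose-response fit.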
# PC3 cells [5] = experiment: In vivo efficacy study (tumor growth suppression), PC3 xenograft; conditions: PC3 xenograft mice, after 14 days of dosing at 40 mg/kg bid po
# Procedure: PC3 cells were cultured at 37° C. in a 5% CO2 incubator using Hams F12 K medium. Five million (5×10^6) cells were implanted subcutaneously to the right flank of athymic male mice (Harlan, age: 6-7 weeks, weight: about 20 g). Tumor bearing mice were randomized when the tumor volume reached about 100 mm^3. Ten mice were used per group. Dosage regimen of compounds of formula (I) were scheduled on the basis of the PK, PK-PD and maximum tolerated dose studies. Compounds of formula (I) were formulated using HPCD in PBS, pH 7.4 and dosed orally (dose volume, 10 mL/kg). Solutions of the compounds were prepared immediately before dosing the animals. A vehicle control and a reference compound were included along with test compounds.
# The tumor size was measured on alternate days using Vernier® calipers. Assuming tumors to be ellipsoid, the tumor volume was calculated using the formula: V=(D×d^2)/2 […]
# Changes in tumor volume (Δ volumes) for each treated (T) and control (C) group were calculated by subtracting the mean tumor volume on the first day of treatment (starting day) from the mean tumor volume on the specified observation day. […]
# Percentage tumor growth inhibition was calculated as [100−% T/C]. Percentage body weight change was calculated as [(Body weight on specified observation day−Body weight on starting day)/Body weight on starting day]×100. […]
IC50 [1] [µM],IC50 (mTOR kinase) [µM],IC50 (PI3 kinase isoform β) [µM],IC50 [2] [µM],IC50 [3] [µM],IC50 (PC3 cells [4]) [µM],SMILES,tumor growth inhibition relative to vehicle control group (PC3 cells [5])
< 0.1,< 0.05,< 0.5,< 0.05,0.201 to 10,0.201 to 10,"CN(C)C(=O)c1ccc(NC(=O)Nc2ccc(-c3nc(N4CCOCC4)c4ncc(-c5cccc(S(C)(=O)=O)c5)cc4n3)cc2F)cc1 [Example 104, 4-(3-(2-fluoro-4-(7-(3-(methylsulfonyl)phenyl)-4-morpholino-pyrido[3,2-d]pyrimidin-2-yl)phenyl)ureido)-N,N-dimethyl-benzamide]",–
–,< 0.05,–,< 0.05,0.201 to 10,0.201 to 10,"CN(C)C(=O)c1ccc(NC(=O)Nc2ccc(-c3nc(N4CCOCC4)c4ccc(-c5ccc(CO)o5)cc4n3)cc2)cc1 [Example 183, 4-(3-(4-(7-(5-(hydroxymethyl)furan-2-yl)-4-morpholino-quinazolin-2-yl)phenyl)ureido)-N,N-dimethyl-benzamide]",about 60%
–,< 0.05,–,< 0.05,0.201 to 10,0.201 to 10,"CN(C)C(=O)c1ccc(NC(=O)Nc2ccc(-c3nc(N4CCOCC4)c4ncc(-c5cnn(C)c5)cc4n3)cc2F)cc1 [Example 82, 4-(3-(2-fluoro-4-(7-(1-methyl-1H-pyrazol-4-yl)-4-morpholino-pyrido[3,2-d]pyrimidin-2-yl)phenyl)ureido)-N,N-dimethyl-benzamide]",about 60%
